This note sets out measurements from patent publication US20160194336A1, “P38 MAPK INHIBITORS FOR THE TREATMENT OF INFLAMMATORY DISEASES” (ALLINKY BIOPHARMA, priority 2012, published 2016).

In series [1] the test system is TNF-α secretion, THP-1 cells. In words: Inhibition of TNF-α secretion by LPS-stimulated THP-1. Type of series: cell-based. The settings on record: Homo sapiens, THP-1, 3 h, monocytes with LPS, read-out: TNF abetment. As to the method: Inhibition of TNF-α Secretion by a Human Monocytic Cell Line, THP-1.
THP-1 cells, growing in log phase, were collected by centrifugation and resuspended in RPMI 1640 (Sigma Aldrich), to a final cell concentration of 2×10^6 cells/ml. Cells were plated into 24-well plates (BD Biosciences). Dilutions of compounds in dimethyl sulfoxide (DMSO) were added to the culture to a final concentration M. The final DMSO concentration was 0.5%. The cells […] suspensions were preincubated with compounds for 1 h at 37° C. in a 5% C02 humidified atmosphere before the addition of LPS (Sigma Aldrich, L2654) to a final concentration of 2 μg/ml. After that, cells were incubated for 3 h followed by centrifugation to pellet cells. Cell supernatants were stored at 4° C. until Human analysis for TNF-α content. TNF-α levels were determined by ELISA (TNF Biotrak, GE Healthcare) following the manufacturer's directions. The percentage inhibition was calculated for each compound concentration tested, and the IC50 was calculated for each compound.

The target of a further series is T1, p38alpha wt (Homo sapiens, UniProt Q16539).
T1 construct: made in house; host or cells: E. coli XL10-Gold
In words: site-mutated p38 phosphorylation cascade assay, wild type. Type of series: biochemical. The settings on record: compound 10 uM. How it is done:
(§1) After preincubation, MKK6 (ProQinase), ATF2 (ProQinase) and ATP were added to a final concentration of 10 nM, 5 μM and 10 μM respectively, then incubated 40 minutes at 30° C. and analyzed with ADP-Glo™.
(§2) Replacement of specific residues arginine 186 and 189 of p38α (pGEX4T-1-p38α) for alanine was performed with the QuikChange Lightining Site-Directed Mutagenesis Kit (Agilent Technologies). The following oligonucleotides were used for the arginine 186 to alanine substitution: forward primer: 5′-SEQ ID NO 7-3′; reverse primer: 5′-SEQ ID NO 8-3′. Oligonucleotides used for the arginine 189 to alanine substitution were: forward primer: 5′-SEQ ID NO 9-3′; reverse primer: 5′-SEQ ID NO 10-3′. Mutations were validated by sequencing (Genomic Unit, Parque Cientifico de Madrid). E. coli XL10-Gold ultracompentent cells (Agilent Technologies) were transformed with the vector plasmids containing p38αWT and mutants. For the expression of recombinant p38α transformed cells were cultured overnight at 37° C. in 50 ml of fresh LB medium containing ampicillin (100 μg/ml). After that, culture was diluted in fresh LB to A595=0.4 and grown for approximately 1 h at 37° C. until exponential growth and then induced with Isopropyl-β-D-thiogalactopyranoside (IPTG) 1 mM for 5 h. The cells were collected by centrifugation and cell pellet were resuspended in 50 ml of cold lysis buffer: PBS pH 7.4, EDTA 10 mM, PMSF 1 mM, Benzamidine 0.2 mM, DTT 5 mM, Triton X-100 1% and Lysozyme 1 mg/ml. The soluble and insoluble fractions were separated by centrifugation (16,000 g for 20 min). The soluble fraction was incubated for 2 hours with 1 ml of pre-equilibrated Glutathione Sepharose 4B (GE Healthcare) and the resin was extensively washed in a column with 200 ml of binding buffer: PBS, PMSF 1 mM and benzamidine 0.2 mM. Proteins were eluted with 1 ml of Tris-HCl 50 mM pH 8.0 and reduced glutathione 20 mM. 20% glycerol was added to purified proteins and stored at −80° C. Protein concentration and purity was assessed by SDS-PAGE. Kinase activity was measured by ADP-glo kit using MKK6 as activator and ATF2 as substrate. Activity recorded for p38αR186A and p38αR189A were 15.5% and 4.8%, respectively (n=4) related to wild type protein.

Another series has as its system THP-1 cells. In words: survival of monocytes with LPS. Type of series: cell-based, human.
In a further series the target is T2, p38αR189A (Homo sapiens, UniProt Q16539, R189A).
T2 construct: made in house; host or cells: E. coli XL10-Gold
As to the kind of experiment: site-mutated p38 phosphorylation cascade assay, R189A mutant. Type of series: biochemical. The settings on record: compound 10 uM. How it is done:
as §1, §2

The next series addresses T3, p38αR186A (Homo sapiens, UniProt Q16539, R186A).
T3 construct: made in house; host or cells: E. coli XL10-Gold
As to the kind of experiment: site-mutated p38 phosphorylation cascade assay, R186A mutant. Type of series: biochemical. The settings on record: compound 10 uM. How it is done:
as §1, §2

T1 sequence (Q16539 whole entry): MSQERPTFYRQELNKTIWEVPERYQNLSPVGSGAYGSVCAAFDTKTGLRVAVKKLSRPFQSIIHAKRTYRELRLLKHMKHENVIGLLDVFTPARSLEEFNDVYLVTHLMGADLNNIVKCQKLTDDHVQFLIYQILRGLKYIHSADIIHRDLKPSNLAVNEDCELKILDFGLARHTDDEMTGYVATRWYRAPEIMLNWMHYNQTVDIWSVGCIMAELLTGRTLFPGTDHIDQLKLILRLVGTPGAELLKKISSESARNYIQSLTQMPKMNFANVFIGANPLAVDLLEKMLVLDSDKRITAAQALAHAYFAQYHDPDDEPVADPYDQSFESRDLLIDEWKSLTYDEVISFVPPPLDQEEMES
T3 sequence (Q16539 whole entry R186A): as the sequence (Q16539 whole entry) above, with R186A counted along it
T2 sequence (Q16539 whole entry R189A): as the sequence (Q16539 whole entry) above, with R189A counted along it

As for `CCOC(=O)c1ccc(Nc2nc3nonc3nc2N2CCC(C(=O)c3ccccc3)CC2)cc1` [Compound 17], the inhibition at 0.1 µM in series [1] worked out at 21%. Besides, in series [1], the inhibition at 1 µM was 34%. The inhibition at 10 µM was found to be 69% in series [1], 56% at p38alpha wt, 13% against p38αR189A and 19% on p38αR186A. Also, the results for the Cell survival in the series on THP-1 cells (0.1 uM), in the series on THP-1 cells (1 uM) and in the series on THP-1 cells (10 uM) were 99%, 98% and 97%, respectively.
Take `Cc1ccc(SC2CCN(c3nc4nonc4nc3-c3cccc(C(=O)OC(C)C)c3)CC2)cc1` [Compound 22]: in series [1], the inhibition at 0.1 µM is -2%. In addition, the inhibition at 1 µM in series [1] was found to be 17%. The inhibition at 10 µM in series [1] came to 10%; against p38alpha wt, 31%; at p38αR189A, 6%; on p38αR186A, 16%. The values for the Cell survival in the series with THP-1 cells (0.1 uM), with THP-1 cells (1 uM) and with THP-1 cells (10 uM) were 97%, 94% and 99%, respectively.
As for `CCOC(=O)c1ccc(Nc2nc3nonc3nc2N2CCN(Cc3cccc(Cl)c3)CC2)cc1` [Compound 13], in series [1], the inhibition at 1 µM came to 13%. Further, the inhibition at 10 µM in series [1] stood at 32%; against p38alpha wt, 34%; against p38αR189A, 14%; against p38αR186A, 22%. Besides, the Cell survival with THP-1 cells (1 uM) amounted to 93%; with THP-1 cells (10 uM), 86%.
On to `CCOC(=O)c1ccc(Nc2nc3nonc3nc2N2CCC(Oc3ccc(Cl)cc3)CC2)cc1` [Compound 25], for which the inhibition at 0.1 µM in series [1] was 12%. In addition, the inhibition at 1 µM in series [1] was 61%. The inhibition at 10 µM in series [1] is 102%; on p38alpha wt, 59%; against p38αR189A, 30%; on p38αR186A, 14%. Besides, the Cell survival with THP-1 cells (0.1 uM) is reported as 88%; in the series with THP-1 cells (1 uM), 61%; in the series with THP-1 cells (10 uM), 42%.
Turning to `CCOC(=O)c1ccc(Nc2nc3nonc3nc2N2CCC(Oc3ccccc3OC)CC2)cc1` [Compound 16], the inhibition at 0.1 µM in series [1] was found to be 16%. Besides, the inhibition at 1 µM in series [1] worked out at 26%. Also, the inhibition at 10 µM is 35% in series [1], 32% on p38alpha wt, 17% against p38αR189A and 15% at p38αR186A. For the same compound, the figures for the Cell survival with THP-1 cells (0.1 uM), in the series on THP-1 cells (1 uM) and with THP-1 cells (10 uM) were 88%, 95% and 93%, respectively.
With `CC(C)NC(=O)c1ccc(Nc2nc3nonc3nc2N2CCC(Cc3ccccc3)CC2)cc1` [Compound 18], in series [1], the inhibition at 0.1 µM came out at 1%. Further, in series [1], the inhibition at 1 µM was found to be 34%. Also, the inhibition at 10 µM came out at 56% in series [1], 62% against p38alpha wt, 33% against p38αR189A and 37% against p38αR186A. For the same compound, the Cell survival with THP-1 cells (0.1 uM) worked out at 90%; with THP-1 cells (1 uM), 83%; in the series with THP-1 cells (10 uM), 79%.
`CCOC(=O)c1ccc(Nc2nc3nonc3nc2Nc2ccc(Oc3ccncc3)cc2)cc1` [Compound 27]: in series [1], the inhibition at 0.1 µM was 28%. In addition, the inhibition at 1 µM in series [1] was found to be 58%. Further, the inhibition at 10 µM was 76% in series [1], 88% against p38alpha wt, 47% on p38αR189A and 72% against p38αR186A. The values for the Cell survival in the series on THP-1 cells (0.1 uM), with THP-1 cells (1 uM) and in the series on THP-1 cells (10 uM) were 103%, 99% and 72%, respectively.
As for `O=C(O)c1ccc(Nc2nc3nonc3nc2N2CCC(Cc3ccccc3)CC2)cc1` [Compound 29], the inhibition at 0.1 µM in series [1] is 7%. Further, the inhibition at 1 µM in series [1] is 11%. Moreover, the inhibition at 10 µM amounted to 44% in series [1], 23% at p38alpha wt, 6% against p38αR189A and 21% against p38αR186A. In addition, the Cell survival with THP-1 cells (0.1 uM) was 103%; in the series with THP-1 cells (1 uM), 103%; in the series with THP-1 cells (10 uM), 92%.
Take `CC(C)NC(=O)c1cccc(Nc2nc3nonc3nc2N2CCC(Cc3ccccc3)CC2)c1` [Compound 20]: the inhibition at 0.1 µM in series [1] was -9%. In series [1], the inhibition at 1 µM is 55%. For the same compound, the inhibition at 10 µM in series [1] amounted to 36%; against p38alpha wt, 71%; against p38αR189A, 22%; on p38αR186A, 38%. The Cell survival with THP-1 cells (0.1 uM) is 101%; in the series on THP-1 cells (1 uM), 96%; with THP-1 cells (10 uM) it was 81%.
Consider `CCOC(=O)c1ccc(Nc2nc3nonc3nc2N2CCN(Cc3ccccc3C)CC2)cc1` [Compound 14], for which the inhibition at 10 µM in series [1] was found to be 17%; at p38alpha wt, 31%; at p38αR189A, 17%; at p38αR186A, 18%. Further, the Cell survival with THP-1 cells (10 uM) worked out at 81%.
As for `CCCNC(=O)c1ccc(Nc2nc3nonc3nc2N2CCC(Cc3ccccc3)CC2)cc1` [Compound 19], in series [1], the inhibition at 0.1 µM was -47%. The inhibition at 1 µM in series [1] is -21%. Further, the inhibition at 10 µM in series [1] was -10%; at p38alpha wt it was 71%; on p38αR189A it was 32%; on p38αR186A, 35%. Also, the Cell survival with THP-1 cells (0.1 uM) stood at 103%; with THP-1 cells (1 uM), 97%; in the series on THP-1 cells (10 uM), 93%.
Take `CCCNC(=O)c1ccc(Nc2nc3nonc3nc2N2CCC(Sc3ccc(C)cc3)CC2)cc1` [Compound 23]: in series [1], the inhibition at 0.1 µM came out at 26%. The inhibition at 1 µM in series [1] came to 41%. Besides, the inhibition at 10 µM in series [1] came out at 60%; against p38alpha wt it was 90%; on p38αR189A, 26%; against p38αR186A it was 48%. Further, the Cell survival is reported as 96% in the series with THP-1 cells (0.1 uM), 95% with THP-1 cells (1 uM) and 88% in the series with THP-1 cells (10 uM).
For the compound `O=C([O][Na+])c1ccc(Nc2nc3nonc3nc2N2CCC(Cc3ccccc3)CC2)cc1` [Compound 30], in series [1], the inhibition at 0.1 µM came to 12%. For the same compound, the inhibition at 1 µM in series [1] came out at 16%. Moreover, the inhibition at 10 µM in series [1] is 41%; against p38alpha wt it was 25%; on p38αR189A, 9%; against p38αR186A, 19%. Moreover, the Cell survival in the series on THP-1 cells (0.1 uM) stood at 99%; in the series on THP-1 cells (1 uM) it was 97%; in the series on THP-1 cells (10 uM) it was 93%.
With `CCOC(=O)c1ccc(Nc2nc3nonc3nc2NN=Cc2cccc3ccccc23)cc1` [Compound 12], in series [1], the inhibition at 1 µM is -6%. For the same compound, the inhibition at 10 µM in series [1] was -16%; on p38alpha wt, 81%; at p38αR189A, 14%; against p38αR186A, 39%. In addition, the Cell survival amounted to 97% with THP-1 cells (1 uM) and 99% in the series on THP-1 cells (10 uM).
For the compound `Cc1cc(C(=O)NCC(C)C)ccc1Nc1nc2nonc2nc1N1CCC(Cc2ccccc2)CC1` [Compound 21], in series [1], the inhibition at 0.1 µM was -15%. Besides, the inhibition at 1 µM in series [1] is 18%. Further, the inhibition at 10 µM in series [1] is 20%; against p38alpha wt it was 83%; on p38αR189A it was 38%; on p38αR186A, 48%. The Cell survival with THP-1 cells (0.1 uM) is 98%; in the series on THP-1 cells (1 uM) it was 95%; in the series with THP-1 cells (10 uM), 94%.
